Results: US7659299B2, “Compounds inhibiting the binding of sap for treating osteoarthritis” (Pentraxin Therapeutics Limited, priority 2003, dated 2010)
Where “and” joins values, the source holds several entries; their conditions need not be identical. Equal values may be shown once.

Legend:
SAP [1] = molecular target: T1, SAP (Homo sapiens, UniProt P02743); experiment: Isothermal calorimetry: dissociation constants between SAP and compounds; type: binding; settings: replicate measurements, read-out: Kd in micromoles per liter (replicate measurements)
T1 sequence (P02743 20-223): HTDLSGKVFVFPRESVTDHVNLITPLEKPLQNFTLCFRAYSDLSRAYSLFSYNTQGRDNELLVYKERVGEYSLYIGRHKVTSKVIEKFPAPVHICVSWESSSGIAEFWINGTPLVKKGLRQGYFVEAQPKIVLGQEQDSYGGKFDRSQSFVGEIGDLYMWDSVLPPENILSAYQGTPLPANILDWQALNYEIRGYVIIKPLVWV
Text: Surface plasmon resonance (SPR) is a low throughput but powerfully informative method to identify compounds that are bound by, or themselves bind to SAP, either in a calcium dependent fashion or independently of calcium, for the purposes of the present invention. For example, low molecular weight compounds that inhibit binding of SAP to its macromolecular ligands, including target ligands relevant to the present invention, can be detected by their effect on the signal generated by fluid phase SAP binding to ligand immobilised on the solid phase (Example A). Furthermore, when SAP itself is immobilised on the solid phase in an SPR instrument, the interaction with it of test molecules provided in the fluid phase generates a signal that can be detected and quantified. Purified SAP immobilized within an SPR instrument gives a quantifiable signal when it is exposed to another molecule that forms a complex with the SAP, and this is distinct from the absence of such a signal if no complex is formed. […] Another low throughput but powerful direct method is isothermal calorimetry that measures the heat of interaction in solution between SAP and test compounds according to the present invention. The binding affinity can be measured precisely as a guide to potential efficacy. Typical results by this method for the dissociation constants, Kd, between SAP and various compounds are as follows: […]

SAP [2] = molecular target: T1, SAP; experiment: Inhibition of binding of 125I radiolabelled SAP to native long chromatin immobilized in microtitre plates; set-up: 5 μl of radiolabelled SAP in TN; from tissue; settings: read-out: Percent inhibition of binding of radiolabelled SAP to immobilized native long chromatin

Structure (SMILES): O=C(O)[C@H]1CCCN1C(=O)CCCCC(=O)N1CCC[C@@H]1C(=O)O [Ro-63-8695, (R)-1-[6-[(R)-2-Carboxy-pyrrolidin-1-yl]-6-oxo-hexanoyl]pyrrolidine-2-carboxylic acid]
- Kd (SAP [1]): 13.9 nM and 5.9 nM and 6.5 nM and 8.8 nM
- inhibition at 0.2 µM (SAP [2]; compound 200 nM): 1%
- inhibition at 2 µM (SAP [2]; compound 2 μM): 29%
- inhibition at 20 µM (SAP [2]; compound 20 μM): 69%
- inhibition at 200 µM (SAP [2]; compound 200 μM): 87%
- inhibition at 2000 µM (SAP [2]; compound 2 mM): 93%
